Patent publication US9790178B2, “Pyrrolidinyl urea, thiourea, guanidine and cyanoguanidine compounds as TrkA kinase inhibitors” (Array BioPharma Inc., priority 2012, dated 2017)

Tests used:
Assay in all cases: KinaseProfiler off-target kinase profiling
Assay type in all cases: biochemical
Conditions in all cases: 10 μM, ATP near Km
BrSK1 = biological target: T1, BrSK1 (Homo sapiens, UniProt Q8TDC3)
T1 construct: purchased Millipore, Inc. (KinaseProfiler service)
Protocol: (§1) A representative compound of the invention (Example 20) was tested for off-target kinase activity at a concentration of 10 μM by Millipore, Inc. in their KinaseProfiler™ service against all the kinases available in their full kinase panel. The compound was run in duplicate at a concentration of ATP near the Km for each individual kinase according to Millipore's specifications. The results are shown in Table B. Data are reported as percent of control (POC) and are the average of the two replicates.

PKCtheta = biological target: T2, PKCtheta (Homo sapiens, UniProt Q04759)
T2 construct: purchased Millipore (KinaseProfiler service)
Protocol: as §1

Yes = biological target: T3, Yes (Homo sapiens, UniProt P07947)
T3 construct: purchased Millipore, Inc. (KinaseProfiler service)
Protocol: as §1

p70S6K = biological target: T4, p70S6K (Homo sapiens, UniProt P23443)
T4 construct: purchased Millipore, Inc. (KinaseProfiler service)
Protocol: as §1

Met = biological target: T5, Met (Homo sapiens, UniProt P08581)
T5 construct: purchased Millipore, Inc. (KinaseProfiler service)
Protocol: as §1

mTOR/FKBP12 = biological target: T6, mTOR/FKBP12 (Homo sapiens, UniProt P42345)
T6 construct: purchased Millipore, Inc. (KinaseProfiler service)
Protocol: as §1

FGFR3 = biological target: T7, FGFR3 (Homo sapiens, UniProt P22607)
T7 construct: purchased Millipore, Inc. (KinaseProfiler service)
Protocol: as §1

TSSK2 = biological target: T8, TSSK2 (Homo sapiens, UniProt Q96PF2)
T8 construct: purchased Millipore, Inc. (KinaseProfiler service)
Protocol: as §1

ULK2 = biological target: T9, ULK2 (Homo sapiens, UniProt Q8IYT8)
T9 construct: purchased Millipore, Inc. (KinaseProfiler service)
Protocol: as §1

PKCiota = biological target: T10, PKCiota (Homo sapiens, UniProt P41743)
T10 construct: purchased Millipore (KinaseProfiler service)
Protocol: as §1

ERK1 = biological target: T11, ERK1 (Homo sapiens, UniProt P27361)
T11 construct: purchased Millipore, Inc. (KinaseProfiler service)
Protocol: as §1

Hck = biological target: T12, Hck (Homo sapiens, UniProt P08631)
T12 construct: purchased Millipore, Inc. (KinaseProfiler service)
Protocol: as §1

CDK3/cyclinE = biological target: T13, CDK3/cyclinE (Homo sapiens, UniProt Q00526)
T13 construct: purchased Millipore, Inc. (KinaseProfiler service)
Protocol: as §1

p38gamma = biological target: T14, p38gamma (Homo sapiens, UniProt P53778)
T14 construct: purchased Millipore, Inc. (KinaseProfiler service)
Protocol: as §1

ErbB4 = biological target: T15, ErbB4 (Homo sapiens, UniProt Q15303)
T15 construct: purchased Millipore, Inc. (KinaseProfiler service)
T15 sequence (Q15303 26-1308): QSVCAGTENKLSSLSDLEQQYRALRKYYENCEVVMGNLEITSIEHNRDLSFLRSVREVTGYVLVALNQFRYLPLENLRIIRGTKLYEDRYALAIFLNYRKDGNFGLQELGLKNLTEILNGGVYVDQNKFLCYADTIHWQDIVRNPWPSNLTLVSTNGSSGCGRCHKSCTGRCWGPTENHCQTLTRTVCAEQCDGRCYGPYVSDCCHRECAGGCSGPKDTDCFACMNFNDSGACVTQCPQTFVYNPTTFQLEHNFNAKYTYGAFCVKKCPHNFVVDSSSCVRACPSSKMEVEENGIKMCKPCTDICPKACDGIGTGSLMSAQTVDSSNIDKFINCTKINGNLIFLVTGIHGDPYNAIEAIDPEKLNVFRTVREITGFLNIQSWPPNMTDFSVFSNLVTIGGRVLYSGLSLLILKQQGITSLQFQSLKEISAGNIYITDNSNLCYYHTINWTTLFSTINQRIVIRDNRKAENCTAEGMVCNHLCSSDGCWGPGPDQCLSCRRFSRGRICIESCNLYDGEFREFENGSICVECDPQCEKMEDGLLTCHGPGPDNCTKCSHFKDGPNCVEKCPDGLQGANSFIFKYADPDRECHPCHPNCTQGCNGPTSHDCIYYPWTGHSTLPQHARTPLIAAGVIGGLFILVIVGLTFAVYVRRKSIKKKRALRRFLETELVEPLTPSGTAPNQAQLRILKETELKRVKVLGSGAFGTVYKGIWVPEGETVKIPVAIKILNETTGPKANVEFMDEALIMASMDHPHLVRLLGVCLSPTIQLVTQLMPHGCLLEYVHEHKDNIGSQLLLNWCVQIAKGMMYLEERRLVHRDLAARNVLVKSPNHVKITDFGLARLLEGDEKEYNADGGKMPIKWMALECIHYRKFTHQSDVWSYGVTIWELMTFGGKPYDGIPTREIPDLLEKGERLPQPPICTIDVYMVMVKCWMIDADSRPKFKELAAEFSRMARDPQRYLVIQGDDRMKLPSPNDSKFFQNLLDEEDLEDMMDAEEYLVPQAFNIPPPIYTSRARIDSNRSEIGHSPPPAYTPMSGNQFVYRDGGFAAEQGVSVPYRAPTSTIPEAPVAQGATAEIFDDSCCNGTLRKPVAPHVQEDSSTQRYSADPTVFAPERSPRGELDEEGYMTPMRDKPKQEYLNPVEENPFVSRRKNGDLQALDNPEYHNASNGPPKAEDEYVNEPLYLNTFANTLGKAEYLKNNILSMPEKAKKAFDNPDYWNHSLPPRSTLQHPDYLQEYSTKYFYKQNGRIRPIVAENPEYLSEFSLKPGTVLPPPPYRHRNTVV
Protocol: as §1

GRK5 = biological target: T16, GRK5 (Homo sapiens, UniProt P34947)
T16 construct: purchased Millipore, Inc. (KinaseProfiler service)
Protocol: as §1

AKT1 = biological target: T17, AKT1 (Homo sapiens, UniProt P31749)
T17 construct: purchased Millipore, Inc. (KinaseProfiler service)
T17 sequence (P31749 whole entry): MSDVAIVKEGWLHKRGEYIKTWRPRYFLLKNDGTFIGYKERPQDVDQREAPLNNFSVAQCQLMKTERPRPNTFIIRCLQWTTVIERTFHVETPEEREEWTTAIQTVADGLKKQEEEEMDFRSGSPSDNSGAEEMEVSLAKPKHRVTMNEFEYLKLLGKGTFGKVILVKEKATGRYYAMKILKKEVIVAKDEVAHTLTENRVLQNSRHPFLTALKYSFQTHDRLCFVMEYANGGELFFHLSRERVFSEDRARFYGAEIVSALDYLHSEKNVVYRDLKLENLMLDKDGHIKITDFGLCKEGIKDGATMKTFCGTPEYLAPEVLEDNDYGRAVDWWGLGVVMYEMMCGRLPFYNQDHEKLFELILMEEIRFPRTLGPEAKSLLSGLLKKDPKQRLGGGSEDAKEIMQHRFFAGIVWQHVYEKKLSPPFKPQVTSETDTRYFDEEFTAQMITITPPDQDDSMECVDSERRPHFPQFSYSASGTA
Protocol: as §1

PKCzeta = biological target: T18, PKCzeta (Homo sapiens, UniProt Q05513)
T18 construct: purchased Millipore (KinaseProfiler service)
T18 sequence (Q05513 whole entry): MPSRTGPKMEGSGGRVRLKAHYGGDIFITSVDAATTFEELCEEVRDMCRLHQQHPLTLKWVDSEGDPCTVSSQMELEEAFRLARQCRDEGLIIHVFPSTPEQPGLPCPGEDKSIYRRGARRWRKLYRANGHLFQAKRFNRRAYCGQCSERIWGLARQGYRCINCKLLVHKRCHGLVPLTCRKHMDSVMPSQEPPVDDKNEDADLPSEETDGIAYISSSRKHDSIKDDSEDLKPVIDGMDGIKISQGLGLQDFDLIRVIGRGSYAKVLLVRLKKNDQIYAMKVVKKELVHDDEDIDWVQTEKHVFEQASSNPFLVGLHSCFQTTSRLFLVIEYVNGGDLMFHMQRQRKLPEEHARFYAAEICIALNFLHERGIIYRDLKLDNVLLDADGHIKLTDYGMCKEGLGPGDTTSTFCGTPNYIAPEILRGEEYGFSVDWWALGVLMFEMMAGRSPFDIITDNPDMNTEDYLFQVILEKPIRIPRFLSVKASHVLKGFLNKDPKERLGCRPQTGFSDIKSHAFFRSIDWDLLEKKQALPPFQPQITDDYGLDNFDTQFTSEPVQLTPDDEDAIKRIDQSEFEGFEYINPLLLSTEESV
Protocol: as §1

JAK3 = biological target: T19, JAK3 (Homo sapiens, UniProt P52333)
T19 construct: purchased Millipore, Inc. (KinaseProfiler service)
Protocol: as §1

PKCalpha = biological target: T20, PKCalpha (Homo sapiens, UniProt P17252)
T20 construct: purchased Millipore, Inc. (KinaseProfiler service)
Protocol: as §1

Lck = biological target: T21, Lck (Homo sapiens, UniProt P06239)
T21 construct: purchased Millipore, Inc. (KinaseProfiler service)
T21 sequence (P06239 whole entry): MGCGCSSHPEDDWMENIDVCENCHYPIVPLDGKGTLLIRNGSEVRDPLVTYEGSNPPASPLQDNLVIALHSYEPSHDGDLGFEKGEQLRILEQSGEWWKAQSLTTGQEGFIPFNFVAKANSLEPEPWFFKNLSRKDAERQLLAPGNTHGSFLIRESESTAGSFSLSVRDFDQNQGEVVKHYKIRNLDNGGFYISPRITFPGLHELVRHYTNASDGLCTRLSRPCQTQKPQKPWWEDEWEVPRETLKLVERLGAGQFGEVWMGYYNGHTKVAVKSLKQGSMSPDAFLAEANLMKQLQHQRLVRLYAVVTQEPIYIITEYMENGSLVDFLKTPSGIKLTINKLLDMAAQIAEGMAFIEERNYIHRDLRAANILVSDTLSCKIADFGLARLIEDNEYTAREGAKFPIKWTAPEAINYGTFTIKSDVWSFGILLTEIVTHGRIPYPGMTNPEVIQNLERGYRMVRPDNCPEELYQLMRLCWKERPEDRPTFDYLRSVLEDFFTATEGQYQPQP
Protocol: as §1

AKT2 = biological target: T22, AKT2 (Homo sapiens, UniProt P31751)
T22 construct: purchased Millipore, Inc. (KinaseProfiler service)
T22 sequence (P31751 whole entry): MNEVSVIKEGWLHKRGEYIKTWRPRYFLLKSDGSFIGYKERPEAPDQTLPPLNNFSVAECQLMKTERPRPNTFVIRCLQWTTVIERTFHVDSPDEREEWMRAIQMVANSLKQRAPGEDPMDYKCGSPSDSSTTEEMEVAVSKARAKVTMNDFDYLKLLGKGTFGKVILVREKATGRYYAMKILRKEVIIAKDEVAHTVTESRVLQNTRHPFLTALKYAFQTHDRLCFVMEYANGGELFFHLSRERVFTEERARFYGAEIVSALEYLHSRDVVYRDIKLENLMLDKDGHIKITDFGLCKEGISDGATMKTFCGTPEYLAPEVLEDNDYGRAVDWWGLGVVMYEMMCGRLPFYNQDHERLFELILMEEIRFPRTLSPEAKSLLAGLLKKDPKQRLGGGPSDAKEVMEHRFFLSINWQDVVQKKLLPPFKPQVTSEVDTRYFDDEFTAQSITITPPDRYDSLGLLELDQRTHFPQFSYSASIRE
Protocol: as §1

EphA1 = biological target: T23, EphA1 (Homo sapiens, UniProt P21709)
T23 construct: purchased Millipore, Inc. (KinaseProfiler service)
Protocol: as §1

GSK3alpha = biological target: T24, GSK3alpha (Homo sapiens, UniProt P49840)
T24 construct: purchased Millipore, Inc. (KinaseProfiler service)
T24 sequence (P49840 whole entry): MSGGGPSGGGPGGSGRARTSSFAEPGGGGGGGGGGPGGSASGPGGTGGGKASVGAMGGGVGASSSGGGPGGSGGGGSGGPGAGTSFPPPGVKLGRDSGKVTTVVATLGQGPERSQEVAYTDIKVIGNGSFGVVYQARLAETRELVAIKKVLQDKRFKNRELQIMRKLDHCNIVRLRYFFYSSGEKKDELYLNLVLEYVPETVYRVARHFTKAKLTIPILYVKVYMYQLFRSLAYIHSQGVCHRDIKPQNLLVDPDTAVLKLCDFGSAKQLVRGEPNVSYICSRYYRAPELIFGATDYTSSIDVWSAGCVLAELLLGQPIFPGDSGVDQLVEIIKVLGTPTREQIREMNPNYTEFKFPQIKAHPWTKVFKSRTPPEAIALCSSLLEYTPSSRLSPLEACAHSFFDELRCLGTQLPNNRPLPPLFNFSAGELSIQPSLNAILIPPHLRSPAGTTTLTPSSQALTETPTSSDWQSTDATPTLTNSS
Protocol: as §1

Pyk2 = biological target: T25, Pyk2 (Homo sapiens, UniProt Q14289)
T25 construct: purchased Millipore (KinaseProfiler service)
Protocol: as §1

SGK1 = biological target: T26, SGK1 (Homo sapiens, UniProt O00141, S422D)
T26 construct: purchased Millipore, Inc. (KinaseProfiler service)
Protocol: as §1

PRK2 = biological target: T27, PRK2 (Homo sapiens, UniProt Q16513)
T27 construct: purchased Millipore (KinaseProfiler service)
Protocol: as §1

TAO2 = biological target: T28, TAO2 (Homo sapiens, UniProt Q9UL54)
T28 construct: purchased Millipore, Inc. (KinaseProfiler service)
Protocol: as §1

MST2 = biological target: T29, MST2 (Homo sapiens, UniProt Q13188)
T29 construct: purchased Millipore, Inc. (KinaseProfiler service)
Protocol: as §1

Rsk4 = biological target: T30, Rsk4 (Homo sapiens, UniProt Q9UK32)
T30 construct: purchased Millipore, Inc. (KinaseProfiler service)
Protocol: as §1

MAPKAP-K5 = biological target: T31, MAPKAP-K5 (Homo sapiens, UniProt Q8IW41)
T31 construct: purchased Millipore, Inc. (KinaseProfiler service)
T31 sequence (Q8IW41 whole entry): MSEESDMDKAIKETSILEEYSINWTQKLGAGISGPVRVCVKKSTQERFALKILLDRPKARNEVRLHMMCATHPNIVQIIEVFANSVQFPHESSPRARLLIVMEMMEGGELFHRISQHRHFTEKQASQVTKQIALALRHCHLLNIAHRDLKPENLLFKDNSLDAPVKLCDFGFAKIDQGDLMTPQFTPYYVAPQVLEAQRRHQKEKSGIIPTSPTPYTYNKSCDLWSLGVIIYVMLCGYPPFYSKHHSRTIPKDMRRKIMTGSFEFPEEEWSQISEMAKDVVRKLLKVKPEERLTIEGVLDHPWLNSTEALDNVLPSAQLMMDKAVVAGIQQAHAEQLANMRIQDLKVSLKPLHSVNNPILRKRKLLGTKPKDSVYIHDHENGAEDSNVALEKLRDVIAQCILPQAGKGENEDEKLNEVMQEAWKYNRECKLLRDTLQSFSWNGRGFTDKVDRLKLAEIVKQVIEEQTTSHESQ
Protocol: as §1

MKK4_m = biological target: T32, MKK4_m (Mus musculus, UniProt P47809)
T32 construct: purchased Millipore, Inc. (KinaseProfiler service)
T32 sequence (P47809 whole entry): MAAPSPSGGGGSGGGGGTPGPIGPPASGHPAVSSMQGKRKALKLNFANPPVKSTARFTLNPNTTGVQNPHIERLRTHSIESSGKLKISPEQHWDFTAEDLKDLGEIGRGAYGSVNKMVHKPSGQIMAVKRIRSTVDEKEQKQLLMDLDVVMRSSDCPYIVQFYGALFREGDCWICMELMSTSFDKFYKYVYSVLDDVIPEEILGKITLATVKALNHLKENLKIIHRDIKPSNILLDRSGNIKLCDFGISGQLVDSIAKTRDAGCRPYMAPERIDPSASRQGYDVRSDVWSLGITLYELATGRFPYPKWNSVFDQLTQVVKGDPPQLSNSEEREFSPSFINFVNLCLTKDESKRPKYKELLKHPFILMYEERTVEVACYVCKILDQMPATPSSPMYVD
Protocol: as §1

TAK1 = biological target: T33, TAK1 (Homo sapiens, UniProt O43318)
T33 construct: purchased Millipore, Inc. (KinaseProfiler service)
Protocol: as §1

HIPK1 = biological target: T34, HIPK1 (Homo sapiens, UniProt Q86Z02)
T34 construct: purchased Millipore, Inc. (KinaseProfiler service)
Protocol: as §1

CDK7/cyclinH/MAT1 = biological target: T35, CDK7/cyclinH/MAT1 (Homo sapiens, UniProt P50613)
T35 construct: purchased Millipore, Inc. (KinaseProfiler service)
Protocol: as §1

DYRK2 = biological target: T36, DYRK2 (Homo sapiens, UniProt Q92630)
T36 construct: purchased Millipore, Inc. (KinaseProfiler service)
Protocol: as §1

GSK3beta = biological target: T37, GSK3beta (Homo sapiens, UniProt P49841)
T37 construct: purchased Millipore, Inc. (KinaseProfiler service)
Protocol: as §1

PKCgamma = biological target: T38, PKCgamma (Homo sapiens, UniProt P05129)
T38 construct: purchased Millipore, Inc. (KinaseProfiler service)
Protocol: as §1

CK1gamma1 = biological target: T39, CK1gamma1 (Homo sapiens, UniProt Q9HCP0)
T39 construct: purchased Millipore, Inc. (KinaseProfiler service)
Protocol: as §1

IR Activated = biological target: T40, IR Activated (Homo sapiens, UniProt P06213)
T40 construct: purchased Millipore, Inc. (KinaseProfiler service)
T40 sequence (P06213 1005-1310 limits assumed): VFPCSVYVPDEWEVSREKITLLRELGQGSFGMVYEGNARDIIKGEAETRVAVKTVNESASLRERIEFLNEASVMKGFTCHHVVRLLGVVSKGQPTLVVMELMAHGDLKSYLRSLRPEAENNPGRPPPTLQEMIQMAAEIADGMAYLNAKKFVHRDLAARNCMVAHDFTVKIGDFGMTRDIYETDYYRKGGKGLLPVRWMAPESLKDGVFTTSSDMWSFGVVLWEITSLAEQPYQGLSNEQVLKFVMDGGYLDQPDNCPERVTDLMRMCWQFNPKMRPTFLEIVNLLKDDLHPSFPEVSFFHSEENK
Protocol: as §1

CDK9/cyclinT1 = biological target: T41, CDK9/cyclinT1 (Homo sapiens, UniProt P50750)
T41 construct: purchased Millipore, Inc. (KinaseProfiler service)
Protocol: as §1

COCCN1C[C@@H](NC(=O)Nc2c(-c3ccccc3)nc3c(C)nccn23)[C@H](c2ccc(F)c(F)c2)C1 [Example 20, 1-((3S,4R)-4-(3,4-difluorophenyl)-1-(2-methoxyethyl)pyrrolidin-3-yl)-3-(8-methyl-2-phenylimidazo[1,2-a]pyrazin-3-yl)urea]
Avg. POC (BrSK1): 112.5 POC | Avg. POC (PKCtheta): 111.5 POC | Avg. POC (Yes): 109 POC | Avg. POC (p70S6K): 112 POC | Avg. POC (Met): 110 POC | Avg. POC (mTOR/FKBP12): 110.5 POC | Avg. POC (FGFR3): 101 POC | Avg. POC (TSSK2): 106 POC | Avg. POC (ULK2): 109 POC | Avg. POC (PKCiota): 101.5 POC | Avg. POC (ERK1): 115 POC | Avg. POC (Hck): 110 POC | Avg. POC (CDK3/cyclinE): 111 POC | Avg. POC (p38gamma): 105.5 POC | Avg. POC (ErbB4): 97.5 POC | Avg. POC (GRK5): 108 POC | Avg. POC (AKT1): 109 POC | Avg. POC (PKCzeta): 104 POC | Avg. POC (JAK3): 115 POC | Avg. POC (PKCalpha): 103.5 POC | Avg. POC (Lck): 135.5 POC | Avg. POC (AKT2): 131 POC | Avg. POC (EphA1): 99 POC | Avg. POC (GSK3alpha): 109.5 POC | Avg. POC (Pyk2): 98.5 POC | Avg. POC (SGK1): 119 POC | Avg. POC (PRK2): 104 POC | Avg. POC (TAO2): 104.5 POC | Avg. POC (MST2): 107.5 POC | Avg. POC (Rsk4): 147 POC | Avg. POC (MAPKAP-K5): 88.5 POC | Avg. POC (MKK4_m): 113 POC | Avg. POC (TAK1): 97 POC | Avg. POC (HIPK1): 111 POC | Avg. POC (CDK7/cyclinH/MAT1): 101.5 POC | Avg. POC (DYRK2): 85.5 POC | Avg. POC (GSK3beta): 129 POC | Avg. POC (PKCgamma): 111 POC | Avg. POC (CK1gamma1): 109 POC | Avg. POC (IR Activated): 108 POC | Avg. POC (CDK9/cyclinT1): 109.5 POC
